“Also recorded” adds a separate entry of the source. Where two headings read alike, the source gives them in different places. *1 amine or outer side, *2 acyl side, *3 side chain or, on linkers, in order; H or OH if unused. Where a SMILES comes first, the peptide text is derived from it. The star is where a group is joined. AMC = Cc1cc(=O)oc2cc(N*)ccc12; Suc = O=C(CCC(=O)[*:2])[*:1]
How the values were obtained:
Mtb proteasome [1] = biological target: T1, Mtb proteasome (Mycobacterium tuberculosis, UniProt P9WHT9); assay: Determination of Ki and type of inhibition (varied substrate concentration, GraphPad Prism model fit); format: biochemical; conditions: for Ki: best scoring inhibition model; for Type of Inhibition: best ranking model (mixed, competitive, noncompetitive, uncompetitive)
T1 construct: made in house
T1 sequence (P9WHT9 whole entry, looked up): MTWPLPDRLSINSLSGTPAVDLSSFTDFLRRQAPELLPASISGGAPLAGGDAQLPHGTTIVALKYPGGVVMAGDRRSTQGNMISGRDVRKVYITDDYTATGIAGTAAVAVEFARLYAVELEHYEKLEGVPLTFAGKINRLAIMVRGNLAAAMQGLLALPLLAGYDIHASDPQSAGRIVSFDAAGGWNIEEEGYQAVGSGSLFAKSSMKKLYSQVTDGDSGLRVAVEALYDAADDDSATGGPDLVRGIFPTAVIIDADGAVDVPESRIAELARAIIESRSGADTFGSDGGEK
Experimental: The concentrations of 11, 13 and 15 were 0, 0.56, 0.81, 1.15, 1.65, 2.35, 4.80, 9.80 and 20 µM. Further, the concentrations for compound 8 were 0, 1.65, 2.35, 4.80, 9.80 µM and for bortezomib 0, 0.28, 0.40, 0.58, 0.82, 1.18, 2.40, 4.90 and 10 µM. All experiments were performed in triplicate. The resulting data were analyzed using the GraphPad Prism 6 software and were fitted to the software provided models for competitive, noncompetitive, uncompetitive and mixed type enzyme inhibition. The mode of inhibition and Ki values were chosen from the best ranking model, as determined by the software. Representative graphs (Michaelis-Menten, Dixon and Lineweaver-Burk plots) depicting the data fit for the best ranking model of inhibition for all compounds are shown in the Supplementary data (Figures S2–S19).

ß5i of IP = conditions: read-out: IC50 against ß5i of IP; cited from earlier work
Mtb proteasome [2] = biological target: T1, Mtb proteasome; assay: biochemical; format: biochemical; conditions: for IC50: 50 µM Suc-LLVY-AMC, 30 min preincubation, 37 °C, triplicate, read-out: IC50 against the Mtb proteasome; for Hill Coefficient: from IC50 curve, Mtb proteasome
Mtb proteasome [3] = biological target: T1, Mtb proteasome; format: biochemical; conditions: for Reversibility of inhibition: Mtb proteasome, 100-fold dilution after preincubation; for Reversibility of inhibition at lower concentrations: concentrations ≤ IC50
Mtb proteasome [4] = biological target: T1, Mtb proteasome; assay: Determination of kinact/Ki values for PR-957; format: biochemical; conditions: 50 µM Suc-LLVY-AMC, 37 °C
Experimental: The kinetic assays were conducted as previously described in Enzymatic assays. Briefly, 7.8 μL of the Mtb proteasome (final concentration of 7 nM) in 20 mM HEPES buffer, pH = 7.5 with 0.5 mM EDTA was added to 0.2 μL of the compound solution at 100x final concentration in DMSO. The concentrations of PR-957 used were 0, 1.15, 1.65, 2.35, 4.80, 9.80 and 20 µM. The enzymatic reaction was initiated by the addition of 2 μL Suc-LLVY-AMC (final concentration of 50 μM) and the reaction progress was determined on a BioTek Synergy HT microplate reader, by monitoring fluorescence at 460 nm (λex = 360 nm) for 90 min at 37 °C. Values of kobs were derived from the fit of the data to the equation P = (vi/kobs)x [1 − exp(−kobs·t)] in GraphPadPrism. The data obtained were afterwards plotted against inhibitor concentration, to obtain kinact/Ki by fitting to the equation […]. The representative plots are presented in Supplementary data (Figure S33–S36).

Mtb proteasome [5] = biological target: T1, Mtb proteasome; design: method as in PMID 16468985; conditions: substrate of Mtb proteasome; read-out: Km (literature value); cited from earlier work
[6] = system: Cc1cc(=O)oc2cc(NC(=O)[C@H](Cc3ccc(O)cc3)NC(=O)[C@@H](NC(=O)[C@H](CC(C)C)NC(=O)[C@H](CC(C)C)NC(=O)CCC(=O)O)C(C)C)ccc12; assay: purified protein, by the assay type; conditions: other: substrate of Mtb proteasome, 10 nM enzyme
Experimental: Additionally, the Km of the substrate Suc-LLVY-AMC was calculated based on the initial velocity of the enzymatic reaction using 10 nM Mtb proteasome at various concentration of the substrate (12.5, 25, 50, 100, 250, 500 µM).

| Molecule | α (mixed inhibition model) (Mtb proteasome [1]) | Ki (Mtb proteasome [1]; Ki) | Type of Inhibition (Mtb proteasome [1]) | IC50 (ß5i of IP) | IC50 (Mtb proteasome [2]) | Hill Coefficient (Mtb proteasome [2]) | Reversibility of inhibition (Mtb proteasome [3]) | Reversibility of inhibition at lower concentrations (Mtb proteasome [3]) | Ki (Mtb proteasome [1]; read-out: Ki) | kinact/KI (Mtb proteasome [4]) | recovery of proteasome activity (Mtb proteasome [3]; concentration equal or higher than IC50) | Km (Mtb proteasome [5]) | Km [6] |
| --- | --- | --- | --- | --- | --- | --- | --- | --- | --- | --- | --- | --- | --- |
| Cc1c(CCC(=O)ON2C(=O)CCC2=O)c(=O)oc2cc3occ(-c4ccco4)c3cc12 [Compound 11] | 6.67 | 4.2 µM | mixed type of inhibition | 0.94 µM | 8.8 ± 1 µM | 0.90 | partially reversible inhibition; also recorded: (Partially) reversible inhibition | reversible inhibition |  |  |  |  |  |
| Cc1cc(-c2coc3cc4oc(=O)c(CC(=O)ON5C(=O)CCC5=O)c(C)c4cc23)c(C)s1 [Compound 13] |  | 1.1 µM | mixed type of inhibition | 4.4 µM | 3.2 ± 0.3 µM | 0.90 | partially reversible inhibition; also recorded: (Partially) reversible inhibition | reversible inhibition |  |  |  |  |  |
| COc1ccc(C[C@H](NC(=O)[C@H](C)NC(=O)CN2CCOCC2)C(=O)N[C@@H](Cc2ccccc2)C(=O)[C@@]2(C)CO2)cc1 [PR-957, reference compound] |  |  | Noncompetitive inhibition | 0.015 µM | 2.2 ± 1 µM | 0.91 | irreversibly inhibited; also recorded: Irreversible inhibition |  | 5.2 µM | 96 M⁻¹ s⁻¹ | no significant recovery of proteasome activity; also recorded: completely inhibited the enzyme |  |  |
| Cc1cc(=O)oc2cc(NC(=O)[C@H](Cc3ccc(O)cc3)NC(=O)[C@@H](NC(=O)[C@H](CC(C)C)NC(=O)[C@H](CC(C)C)NC(=O)CCC(=O)O)C(C)C)ccc12 [Suc-LLVY-AMC] (Suc-LLVY-{AMC}) |  |  |  |  |  |  |  |  |  |  |  | 56 ± 15 µM |  |
| Mtb proteasome (Mycobacterium tuberculosis H37Rv) |  |  |  |  |  |  |  |  |  |  |  |  | ^aKi determined with GraphPad Prism by fitting the data to several inhibition models (mixed, competitive, noncompetitive, uncompetitive). The best scoring model was further examined by creating Dixon, Lineweaver-Burk and Michaelis-Menten plots. Km for Suc-LLVY-AMC is 60 ± 15 µM (see Supplementary data for details). ND, not determined. ^b The data were calculated as residual activities (RAs) of β5i in the presence of 10 μM of each compound (standard errors for RAs were < 15%). µM |

Reference: publication PMC7144120, “Psoralen Derivatives as Inhibitors of Mycobacterium tuberculosis Proteasome” (Molecules, 2020)
